{"source": "patent US10502749B1", "about": "“Method for patient stratification and drug efficacy monitoring” (New York University, priority 2016, dated 2019)", "key": {"[1]": {"test_system": "Ras", "assay": "Concentration levels of mGluR and Ras in mouse trunk blood after 10 days of treatment", "format": "in vivo", "experimental": "(§1) PF-4708671 was obtained from Sigma, Mo., USA. Littermate matched mice underwent 10 days of daily 25 mg/kg intraperitoneal injections of PF-4708671 in a vehicle consisting of saline +5% v/v of Tween-80 (Sigma). On day 10, 90 mins after the final injection mice were killed by cervical dislocation and the hippocampus was quickly dissected to yield whole hippocampal lysates. Simultaneously, trunk blood also was collected to monitor peripheral levels of proteins.\nFXS or wild type mice were treated with an S6K1 inhibitor, PF-4708671 (S6Ki) for 10 days. Concentration levels of the two markers—mGluR and Ras in mouse trunk blood treated with vehicle or the S6Ki were determined. N=3 animals per treatment per genotype were used. Statistical analyses was done using two-way ANOVA (genotype×treatment). P=0.0079 for interaction and p=0.019 for FXS±S6Ki and p=0.16 for WT±S6Ki."}, "[2]": {"test_system": "FXS model mice", "conditions": "cited from earlier work"}, "[3]": {"test_system": "FXS model mice", "conditions": "cited from earlier work", "remark": "listed apart in the source"}, "[4]": {"test_system": "FXS model mice", "conditions": "cited from earlier work", "remark": "listed apart in the source"}, "[5]": {"test_system": "Ras, dynamin, Grin2B, and mGlur5", "assay": "Western blot of candidate proteins in brains of FXS and WT littermates after chronic S6K1 inhibitor treatment", "format": "in vivo, mouse", "conditions": "for Expression of candidate proteins (Ras, dynamin, Grin2B, mGlur5) in brain after treatment: FXS model mice, chronic treatment, 25 mg/kg i.p. daily for 10 days, western blot, 25 mg/kg", "experimental": "as §1\nThus, the candidates correlate with improved behavior in the brain. We therefore evaluated if they could be measured and quantified in a peripheral tissue such as blood. Animals were treated as described above with PF-4708671, then animals were euthanized via cervical dislocation and brain tissue was collected on ice and snap frozen. Lysates were then prepared as previously described (Bhattacharya et al, 2016, incorporated herein by reference) and analyzed by western blot.\nBrain tissues were obtained immediately following euthanasia, snap frozen and homogenized in lysis buffer containing protease and phosphatase inhibitors. Lysates were then analyzed using Western blotting and the levels of specific candidates was determined using densitometry and comparing them to a known loading control such as actin, Gapdh or transferrin receptor."}, "[6]": {"test_system": "FXS model mice", "conditions": "cited from earlier work", "remark": "listed apart in the source"}}}
{"molecule": "CCc1cncnc1N1CCN(Cc2nc3ccc(C(F)(F)F)cc3[nH]2)CC1", "note": "[PF-4708671]", "values": [{"measurement": "Ras level in trunk blood, greater than WT veh", "setting": "[1]; FXS mice, vehicle 10 days (printed as FXS+veh)", "result": 31, "unit": "%"}, {"measurement": "Ras level in trunk blood, average (+/-SD)", "setting": "[1]; FXS mice, vehicle 10 days, N=3 (printed as FXS+veh)", "result": "1.19±0.21"}, {"measurement": "Candidate proteins (mGluR, Ras) in FXS model mouse blood rescued by treatment", "setting": "[1]; FXS model mice, trunk blood, 10 days, listed as S6K1 inhibitor", "result": "one was rescued"}, {"measurement": "Ras level in trunk blood, less from WT veh", "setting": "[1]; WT mice, S6Ki 10 days", "result": 32, "unit": "%"}, {"measurement": "Ras level in trunk blood, average (+/-SD)", "setting": "[1]; WT mice, S6Ki 10 days, N=3", "result": "0.62±0.20"}, {"measurement": "Aberrant spine morphology, rescued by S6K1i", "setting": "[2]", "result": "Both inhibitors rescued"}, {"measurement": "Increased protein synthesis, rescued by S6K1i", "setting": "[3]", "result": "Both inhibitors rescued"}, {"measurement": "Aberrant social novelty behavior, rescued by S6K1i", "setting": "[4]", "result": "Both inhibitors rescued"}, {"measurement": "Ras in the brain of FXS mice after S6K1 inhibitor", "setting": "[5]; FXS mice, brain, FIG. 3", "result": "does not change"}, {"measurement": "Expression of candidate proteins (Ras, dynamin, Grin2B, mGlur5) in brain after treatment", "setting": "[5]", "result": "rescues expression of 3 protein candidates in brain"}, {"measurement": "Expression of candidate proteins (Ras, dynamin, Grin2B, mGlur5) in brain after treatment", "setting": "[5]; listed as S6K1 inhibitor", "result": "3 out of 4 are statistically improved"}, {"measurement": "Aberrant y-maze reversal learning, rescued by S6K1i", "setting": "[6]", "result": "Both inhibitors rescued"}]}
